From PubChem BioAssay AID179 (DTP/NCI, 2004)
Several values for one entry are separate records, joined by “and”; a condition that tells them apart may be missing. Equal entries are not always repeated. Activity calls are given as the source filed them.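 Rule for the calls: active = compounds giving half or more protection of infected cells from virus-caused growth loss, again on retest; inactive = the rest.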 Where a SMILES comes first, the peptide text is derived from it. The star is where a group is joined. Bn = c1ccc(C*)cc1

System: CEM cells HIV-1 protection, formazan growth assay
Experiment: NCI AIDS Antiviral Assay
Conditions: for IC50: measured here: growth of uninfected CEM cells
Summary of the method: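 Steps: treat uninfected and HIV-1-infected human CEM cells at five drug levels; quantify growth by soluble formazan; retest any compound reaching 50% protection; classify actives from the retest.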

Row | Structure (SMILES) | EC50 | IC50 | outcome
1 | CC(C)CN1CC(=O)N2CCCC(C)N2C(=O)C1 (configuration not stated) | > 200 µM | > 200 µM | –
2 | COc1cccc(-n2nnc3c(N)nc(N)nc32)c1 | > 200 µM | > 200 µM | –
3 | CC(=O)OC1[C@@H]2[C@@H](COC(c3c(F)cccc3Cl)N2OC(C)=O)O[C@H]1n1ccc(=O)[nH]c1=O (some centres not stated) | > 200 µM | 115 µM | –
4 | Cc1c2ccccc2nc(CSCC(O)CO)[n+]1[O-] (configuration not stated) | > 200 µM | > 200 µM | –
5 | CC/C=N\N=C(N)N | > 200 µM | 30.2 µM | –
6 | O=c1oc2ccccc2nc1/C=C(\O)c1ccc(Cl)cc1 | > 200 µM | 64.6 µM | –
7 | COc1c(C(=O)/C(=N/Nc2ccc(C(=O)O)cc2)C(C)=O)c(O)cc2occc12 | > 200 µM | 110 µM | –
8 | CCCCc1ccc(Nc2nc(Cl)c3ncn(COCCOC(C)=O)c3n2)cc1 | > 200 µM | 13.8 µM | –
9 | c1ccc([CH2][Sn]([CH2]c2ccccc2)([O]c2cccc3cccnc23)[O]c2cccc3cccnc23)cc1 | – | – | inactive
10 | CCOP(=O)(OCC)/C(C#N)=C/c1ccc(C#N)cc1 | > 123 µM | > 123 µM | –
11 | C[C@H](CCc1nc(C#N)c(N)o1)[C@H]1CC[C@H]2[C@@H]3CCC4C[C@@H](O)CC[C@]4(C)[C@H]3C[C@@H](O)[C@]12C (some centres not stated) | > 20 µM | 1.95 µM | –
12 | Nc1[nH]n(-c2ccccc2)c(=O)c1/C=N/C(=S)NC1CCCCC1 | > 100 µM | > 100 µM | –
13 | CCOc1snc(C(Cl)(Cl)Cl)c1Cl | > 200 µM | > 200 µM | –
14 | COc1ccc(N2C(=O)C3c4[nH]c5ccc(OCc6ccccc6)cc5c4C4CCC(c5ccccc5)CC4C3C2=O)cc1 (configuration not stated) | > 100 µM | > 100 µM | –
15 | O=C(O)C(=O)O | > 427 µM | > 427 µM | –
16 | CC(C)(C)OC(=O)NS(=O)(=O)Nc1ccccc1 | > 200 µM | > 200 µM | –
17 | Cc1ccsc1C(=S)Nc1ccc(Cl)c(/C=N/OC(C)(C)C)c1 | 0.141 µM | 14.1 µM | –
18 | CC(C)CC(C[C@@H](O)[C@H](Cc1ccccc1)NC(=O)O[C@H]1CCOC1)S(=O)(=O)c1ccccc1 (some centres not stated) | 38.9 µM | 112 µM | –
19 | O=C(O/N=C1/CCC/C1=C\c1ccccc1)c1ccc([N+](=O)[O-])cc1 | – | – | inactive
20 | CCOc1ccc(NC(=O)C(=O)CC(=O)C2=C(C)Nc3ccccc3S2)cc1 | > 64.6 µM | > 64.6 µM | –
21 | O=C(CC1SC(=Nc2ccccc2Cl)NC1=O)Nc1ccc(Cl)cc1 (configuration not stated) | > 631 µM | > 200 µM | –

Row | Structure (SMILES) | EC50 | IC50 | outcome
22 | COc1ccc(C2C(C)C(=O)C(C)C(c3ccc(OC)cc3)N2N=O)cc1 (configuration not stated) | > 19.5 µM | > 19.5 µM | –
23 | CC(C)C1=CC2=CC=C3C(C)(C)CC(=O)OC3(C)CC2=C(O)C1=O (configuration not stated) | – | – | inactive
24 | O=C1c2c(O)cc(O)cc2OC(c2ccc(O)c(O)c2)C1O (configuration not stated) | > 200 µM | > 200 µM | –
25 | Clc1ccccc1OCc1nc2ccccc2[nH]1 | > 200 µM | > 200 µM | –
26 | CCCCCC(C/C=N/N(C)C)C(O)(C(F)(F)F)C(F)(F)F (configuration not stated) | > 200 µM | 14.5 µM | –
27 | O=C(/C=C/c1c(O)ccc2ccccc12)c1cccc(O)c1 | > 617 µM | 91.2 µM | –
28 | O=C(OCCN1CCCCC1)c1cc2ccccc2n1Cc1ccccc1 | > 200 µM | 30.2 µM | –
29 | Cc1ccc(Cc2n[nH]c(=O)n2/N=C\CC/C=N\n2c(Cc3ccc(C)cc3)n[nH]c2=O)cc1 | > 200 µM | 120 µM | –
30 | Fc1ccc(N=NN2CCCC2)cc1 | > 200 µM | 123 µM | –
31 | NC(=O)N/N=C(\Cc1nc2ccc(C(=O)c3ccccc3)cc2[nH]c1=O)C(=O)Nc1ccc(Br)cc1 | – | – | inactive
32 | NC1=NC(=O)[C@H](Cc2c[nH]c3ccccc23)N1C(=O)OCc1ccccc1 | > 200 µM | 120 µM | –
33 | COc1cc2c3cc1Oc1c(OC)c(OC)cc4c1[C@@H](Cc1ccc(O)c(c1)Oc1ccc(cc1)C[C@@H]3N(C)CC2)N(C)CC4 | – | – | inactive
34 | O=C(O)CCN(CCC(=O)O)c1ccc(/C=C2\SC(=S)NC2=O)cc1 | > 200 µM | 170 µM | –
35 | COc1cccc2c1OC(c1ccc(Cl)cc1)C([N+](=O)[O-])=C2 (configuration not stated) | > 200 µM | 1.45 µM | –
36 | c1cc2c(cc1[C@@H]1OC[C@@H]3[C@H]1CO[C@H]3c1ccc3c(c1)OCO3)OCO2 | > 200 µM | 79.4 µM | –
37 | CCOC(=O)C1=C2c3cccnc3-c3ccccc3N2C(C(=O)OCC)C1C(=O)OCC (configuration not stated) | – | – | inactive
38 | CC(C)CC(NC(=O)C(CSc1ccc([N+](=O)[O-])cc1)Cc1ccccc1)C(=O)Nc1ccccc1 (configuration not stated) | > 100 µM | > 100 µM | –
39 | N#Cc1nc(C#N)n(S(=O)(=O)c2ccccc2)c1NS(=O)(=O)c1ccccc1 | > 200 µM | > 200 µM | –
40 | CC1OC(n2ncc(=O)[nH]c2=O)C=CC1=O (configuration not stated) | > 1120 µM | 10 µM and 6.92 µM | –
41 | CC1OC(n2cc(C(F)(F)F)c(=O)[nH]c2=O)C=CC1=O (configuration not stated) | > 447 µM | 3.39 µM | –
42 | c1ccc2nc3cc4c(cc3nc2c1)NC12CCCCC1CC1=C(CCCC1)N42 (configuration not stated) | > 200 µM | 3.24 µM | –

Row | Structure (SMILES) | EC50 | IC50 | outcome
43 | CC(C)(C)C1CCC2(CC1)CO2 (configuration not stated) | > 200 µM | 195 µM | –
44 | NC(CCCCNC(=O)CNC(=O)OCc1ccccc1)C(=O)NC(CCCCNC(=O)CNC(=O)OCc1ccccc1)C(=O)NC(CCCCNC(=O)CNC(=O)OCc1ccccc1)C(=O)NC(CCCCNC(=O)CNC(=O)OCc1ccccc1)C(=O)NC(CCCCNC(=O)CNC(=O)OCc1ccccc1)C(=O)NC(CCCCNC(=O)CNC(=O)OCc1ccccc1)C(=O)O (configuration not stated) | > 100 µM | > 100 µM | –
45 | CN1CCN(c2cc3nsnc3c3nsnc23)CC1 | > 200 µM | > 200 µM | –
46 | O=C1C=CC2(C=C1)CCC(=O)O2 | 2.95 µM | 158 µM | –
47 | Cc1ccccc1N1CC2CC3C=CC2(C1)O3 (configuration not stated) | > 200 µM | > 200 µM | –
48 | CCn1c2c(n(CC)c1=S)-c1c(n(CC)c(=S)n1CC)SSSS2 | > 58.9 µM | > 58.9 µM | –
49 | CC(C)C1CC(CO)(CNc2nc(N)nc(Cl)c2/C=N\O)C1 (configuration not stated) | > 20 µM | 0.0331 µM | –
50 | Cc1ccc(-n2c3nc(=O)n(C)c(=O)c-3nc3ccccc32)c(C)c1 | – | – | inactive
51 | COc1cc(C(C#N)NNC(=O)c2ccccc2O)ccc1O (configuration not stated) | > 5.75 µM | 0.427 µM | –
52 | O=C(C(Cl)=C(N1CCOCC1)N1CCOCC1)C(Cl)Cl | > 200 µM | 112 µM | –
53 | COc1ccc(C2NC3=C(CCCC3)N2)cc1 | > 155 µM | 26.3 µM | –
54 | CC(C)Oc1c(-c2ccc(F)cc2)c(O)c2c3c1oc(=O)n3C=CC2C (configuration not stated) | 13.2 µM | 14.8 µM | –
55 | Nc1nc(Nc2ccccc2)sc1O | > 200 µM | 195 µM | –
56 | CCOC(=O)c1ccc(NC(=O)Nc2ncc(Cl)cc2Cl)cc1 | > 200 µM | > 200 µM | –
57 | Cc1ccc(Nc2nc(C)c(C(=O)C/C(=N\NC(N)=S)C(=O)Nc3ccc(Cl)cc3C)s2)cc1 | > 200 µM | > 200 µM | –
58 | CCOP(=O)(OCC)O/N=C/c1cccc(C(F)(F)F)c1 | > 204 µM | > 204 µM | –
59 | Cn1c2ccc(Cl)cc2c2ccc3c(c21)C(=O)C=CC3=O | > 100 µM | 12.9 µM | –
60 | NC(=O)C1=CN(Cc2ccc(F)cc2)c2ccccc2C1S(=O)(=O)O (configuration not stated) | – | 245 µM | inactive
61 | COC(=O)C12Oc3ccc(-c4ccc5c(c4O)C(=O)C4=CCC(C)C(O)C4(C(=O)OC)O5)c(O)c3C(=O)C1=CCC(C)C2O (configuration not stated) | > 12 µM | 1.78 µM | –
62 | COC(=O)NN=C(c1ccc(Cl)cc1)c1ccc(Cl)cc1 | 35.5 µM | 174 µM | –
63 | CC1(c2ccc3cccc(F)c3c2)OC(=O)c2ccccc21 (configuration not stated) | – | – | inactive

Row | Structure (SMILES) | EC50 | IC50 | outcome
64 | CNC(=O)C(CC(C)C)NC(=O)CNC(=O)C(Cc1ccc(OCc2ccccc2)cc1)NC(=O)C(COCc1ccccc1)NC(C)=O (configuration not stated) (Ac-S(Bn)Y(Bn)GL-NHMe; configuration not given here) | > 200 µM | 37.2 µM | –
65 | CCc1n[nH]c(=O)n1NC(=O)CCCC(=O)O | > 200 µM | > 200 µM | –
66 | COC(=O)/C=C/C(=N/Nc1ccccc1)c1ccccc1 | > 200 µM | 28.8 µM | –
67 | Nc1ccc(C(=O)Nc2ccccc2N)cc1 | > 1100 µM | 3.8 µM | –
68 | Cc1cccc(C)c1NC(=O)/C(Cl)=C(/Cl)C(=O)O | – | – | inactive
69 | O=C1CCC23CC(C=CC=C12)n1c(=O)n(-c2ccccc2)c(=O)n13 (configuration not stated) | > 200 µM | 34.7 µM | –
70 | O=c1c2cc3c(cc2[nH]c2ncccc12)OCO3 | > 200 µM | 145 µM | –
71 | NC(=S)N/N=C1/CN(c2ccc(Cl)c(Cl)c2)CC(=O)C1c1nc2ccccc2s1 (configuration not stated) | – | – | inactive
72 | O=C(CCCN1CCC2(CC1)CC(=O)N(N1CCCCCC1)C2=O)c1ccccc1 | > 200 µM | 182 µM | –
73 | COc1cc(C2c3cccc4cccc(c34)C3CCC(=O)N32)cc(O)c1O (configuration not stated) | 3.02 µM | 9.33 µM | –
74 | COC(=O)/C=C1/N=C(N(C)/N=C/c2ccccc2)NC1=O | > 200 µM | > 200 µM | –
75 | O=C(Nc1ccc(C2=NCCN2)cc1)Nc1cc(NC(=O)Nc2ccc(C3=NCCN3)cc2)cc(C(=O)O)c1 | 38.9 µM | > 200 µM | –
76 | c1ccc2c(c1)oc1cc3c(cc12)ncc1cccn13 | > 200 µM | > 200 µM | –
77 | O=C(O)c1nn(-c2ccccn2)c(O)c1N=Nc1ccc(/C=C/c2ccc(N=Nc3c(C(=O)O)nn(-c4ccccn4)c3O)cc2S(=O)(=O)O)c(S(=O)(=O)O)c1 | > 20.4 µM | > 20.4 µM | –
78 | CC(C)=CC(=O)O[C@@H]1CC(C)(C)CC2C3=CCC4[C@]56CC[C@](O)(OC5)C(C)(C)C6CC[C@@]4(C)C3(C)CC[C@]21C(=O)O (some centres not stated) | > 200 µM | 10.2 µM | –
79 | N#C/C(=C\NC(=S)Nc1ccccc1Cl)C(=O)c1ccc2ccccc2c1 | > 200 µM | 141 µM | –
80 | COC1OOC(OC)c2ccccc2-c2ccccc21 (configuration not stated) | > 200 µM | 12.3 µM | –
81 | N#CCCN(c1ccc(C=O)cc1)S(=O)(=O)c1ccccc1 | > 22.9 µM | > 22.9 µM | –
82 | CCCCCCCCCCCCCC(=O)NCO | – | – | inactive
83 | O=[N+]([O-])c1ccc(-n2nnc(C3=NCCN3)c2-c2ccc(Cl)cc2)cc1 | > 135 µM | > 135 µM | –
84 | Cc1cc(NC(=O)c2ccc(N)cc2)ccc1N=Nc1ccc2c(O)c(N=Nc3ccc4cc(S(=O)(=O)O)ccc4c3)c(S(=O)(=O)O)cc2c1 | 25.1 µM | > 100 µM | –
